Laboratory results: ChEMBL document CHEMBL3431459, “Roche carnitine palmitoyltransferase modulator screening data (supplementary data associated with the publication CHEMBL2216752)”
In brackets after ≈: the same amount, converted by molar mass.

Assays:
[1] = SUPPLEMENTARY: Lyophilisation Solubility Assay (LYSA); type: physicochemical; conditions: read-out: Kinetic_solubility
[2] = SUPPLEMENTARY: PAMPA permeability assay; type: physicochemical; conditions: read-out: Permeability
[3] = biological target: T1, Carnitine O-palmitoyltransferase 2, mitochondrial (Rattus norvegicus, UniProt P18886); test: (§1) SUPPLEMENTARY: Inhibition of Carnitine palmitoyltransferase 2
T1 sequence (P18886 whole entry): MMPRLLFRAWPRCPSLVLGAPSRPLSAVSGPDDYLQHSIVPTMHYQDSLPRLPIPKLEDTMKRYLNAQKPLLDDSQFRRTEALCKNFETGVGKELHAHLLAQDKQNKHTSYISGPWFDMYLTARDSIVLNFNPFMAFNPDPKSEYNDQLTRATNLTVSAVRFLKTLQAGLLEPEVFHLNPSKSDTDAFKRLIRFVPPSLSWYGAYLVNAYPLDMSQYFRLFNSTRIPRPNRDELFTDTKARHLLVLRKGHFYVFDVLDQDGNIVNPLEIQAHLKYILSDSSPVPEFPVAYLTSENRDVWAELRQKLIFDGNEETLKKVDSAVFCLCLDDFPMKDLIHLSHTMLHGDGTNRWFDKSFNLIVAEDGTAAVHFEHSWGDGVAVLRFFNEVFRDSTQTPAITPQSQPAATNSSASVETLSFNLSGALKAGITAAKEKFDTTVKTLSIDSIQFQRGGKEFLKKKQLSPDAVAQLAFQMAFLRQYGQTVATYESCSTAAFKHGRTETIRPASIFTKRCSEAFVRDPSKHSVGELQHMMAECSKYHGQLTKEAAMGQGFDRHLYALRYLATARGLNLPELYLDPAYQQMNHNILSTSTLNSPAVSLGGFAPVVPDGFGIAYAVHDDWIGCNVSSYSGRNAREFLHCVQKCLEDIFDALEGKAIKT

[4] = biological target: T2, Carnitine O-palmitoyltransferase 2, mitochondrial (Homo sapiens, UniProt P23786); test: as §1
T2 sequence (P23786 whole entry): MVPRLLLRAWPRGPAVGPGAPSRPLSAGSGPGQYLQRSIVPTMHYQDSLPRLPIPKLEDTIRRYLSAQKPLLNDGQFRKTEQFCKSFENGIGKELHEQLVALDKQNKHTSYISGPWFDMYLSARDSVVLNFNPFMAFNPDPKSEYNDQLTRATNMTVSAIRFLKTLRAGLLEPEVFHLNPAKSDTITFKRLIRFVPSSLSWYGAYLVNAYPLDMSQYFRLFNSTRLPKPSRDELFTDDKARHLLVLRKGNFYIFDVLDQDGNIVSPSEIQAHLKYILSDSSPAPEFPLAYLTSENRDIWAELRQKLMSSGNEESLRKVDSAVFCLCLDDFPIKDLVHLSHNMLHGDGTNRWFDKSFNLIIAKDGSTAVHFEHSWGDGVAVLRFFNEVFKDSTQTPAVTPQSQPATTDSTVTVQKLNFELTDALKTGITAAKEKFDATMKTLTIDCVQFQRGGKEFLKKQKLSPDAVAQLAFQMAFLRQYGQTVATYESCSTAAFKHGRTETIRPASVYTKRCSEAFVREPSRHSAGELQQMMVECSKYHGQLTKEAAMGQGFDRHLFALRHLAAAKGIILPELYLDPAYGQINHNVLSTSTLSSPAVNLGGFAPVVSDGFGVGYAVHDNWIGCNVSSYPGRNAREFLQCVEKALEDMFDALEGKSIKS

[5] = SUPPLEMENTARY: Lipophilicity (log D) Determination by high-throughput shake-flask; type: physicochemical; conditions: octanol/water
[6] = biological target: T3, Carnitine O-palmitoyltransferase 1, muscle isoform (Homo sapiens, UniProt Q92523); test: SUPPLEMENTARY: Inhibition of Carnitine palmitoyltransferase 1, muscle isoform; parameters: species or system Muscle tissue
T3 sequence (Q92523 whole entry): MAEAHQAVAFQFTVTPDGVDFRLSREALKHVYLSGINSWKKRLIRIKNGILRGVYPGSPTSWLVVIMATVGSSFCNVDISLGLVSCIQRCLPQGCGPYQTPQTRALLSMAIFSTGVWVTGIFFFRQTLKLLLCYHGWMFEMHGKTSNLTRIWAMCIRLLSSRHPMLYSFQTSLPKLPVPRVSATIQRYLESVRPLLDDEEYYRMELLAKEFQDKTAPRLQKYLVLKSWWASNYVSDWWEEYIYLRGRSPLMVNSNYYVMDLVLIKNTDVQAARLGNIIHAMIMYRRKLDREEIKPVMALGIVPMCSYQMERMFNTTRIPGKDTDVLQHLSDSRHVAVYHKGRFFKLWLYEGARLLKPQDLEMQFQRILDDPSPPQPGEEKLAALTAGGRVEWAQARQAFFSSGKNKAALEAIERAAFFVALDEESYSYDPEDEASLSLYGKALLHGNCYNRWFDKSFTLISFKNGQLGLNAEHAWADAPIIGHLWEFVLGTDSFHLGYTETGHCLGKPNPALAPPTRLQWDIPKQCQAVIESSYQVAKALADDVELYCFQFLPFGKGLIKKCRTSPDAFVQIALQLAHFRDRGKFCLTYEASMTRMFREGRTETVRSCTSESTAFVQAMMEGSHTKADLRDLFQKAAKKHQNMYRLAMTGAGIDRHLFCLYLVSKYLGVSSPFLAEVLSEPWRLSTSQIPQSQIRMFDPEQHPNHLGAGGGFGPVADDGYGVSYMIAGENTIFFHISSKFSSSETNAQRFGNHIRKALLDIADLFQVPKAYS

[7] = biological target: T4, Carnitine O-palmitoyltransferase 1, liver isoform (Homo sapiens, UniProt P50416); test: (§2) SUPPLEMENTARY: Inhibition of Carnitine palmitoyltransferase 1, liver isoform
T4 sequence (P50416 whole entry): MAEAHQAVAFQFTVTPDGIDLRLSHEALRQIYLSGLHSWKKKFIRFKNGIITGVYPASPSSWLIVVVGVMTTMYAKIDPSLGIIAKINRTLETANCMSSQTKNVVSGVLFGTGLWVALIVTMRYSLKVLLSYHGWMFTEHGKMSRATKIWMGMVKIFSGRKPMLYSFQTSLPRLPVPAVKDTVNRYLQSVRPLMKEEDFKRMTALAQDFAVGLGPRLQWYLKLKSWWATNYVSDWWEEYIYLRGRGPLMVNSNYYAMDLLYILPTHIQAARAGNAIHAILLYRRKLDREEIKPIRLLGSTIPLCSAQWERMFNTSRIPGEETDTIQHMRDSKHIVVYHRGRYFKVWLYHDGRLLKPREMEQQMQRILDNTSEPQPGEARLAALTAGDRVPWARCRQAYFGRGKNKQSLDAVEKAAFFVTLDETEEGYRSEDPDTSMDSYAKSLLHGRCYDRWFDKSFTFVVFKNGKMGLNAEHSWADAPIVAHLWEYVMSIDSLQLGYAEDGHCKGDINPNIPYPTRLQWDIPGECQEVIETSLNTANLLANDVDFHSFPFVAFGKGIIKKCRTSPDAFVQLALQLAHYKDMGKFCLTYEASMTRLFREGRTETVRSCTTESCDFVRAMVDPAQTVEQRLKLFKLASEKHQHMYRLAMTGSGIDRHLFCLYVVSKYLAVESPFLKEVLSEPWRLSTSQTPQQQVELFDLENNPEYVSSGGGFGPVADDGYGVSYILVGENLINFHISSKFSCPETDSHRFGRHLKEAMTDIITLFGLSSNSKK

[8] = biological target: T5, Carnitine O-palmitoyltransferase 1, liver isoform (Rattus norvegicus, UniProt P32198); test: as §2
T5 sequence (P32198 whole entry): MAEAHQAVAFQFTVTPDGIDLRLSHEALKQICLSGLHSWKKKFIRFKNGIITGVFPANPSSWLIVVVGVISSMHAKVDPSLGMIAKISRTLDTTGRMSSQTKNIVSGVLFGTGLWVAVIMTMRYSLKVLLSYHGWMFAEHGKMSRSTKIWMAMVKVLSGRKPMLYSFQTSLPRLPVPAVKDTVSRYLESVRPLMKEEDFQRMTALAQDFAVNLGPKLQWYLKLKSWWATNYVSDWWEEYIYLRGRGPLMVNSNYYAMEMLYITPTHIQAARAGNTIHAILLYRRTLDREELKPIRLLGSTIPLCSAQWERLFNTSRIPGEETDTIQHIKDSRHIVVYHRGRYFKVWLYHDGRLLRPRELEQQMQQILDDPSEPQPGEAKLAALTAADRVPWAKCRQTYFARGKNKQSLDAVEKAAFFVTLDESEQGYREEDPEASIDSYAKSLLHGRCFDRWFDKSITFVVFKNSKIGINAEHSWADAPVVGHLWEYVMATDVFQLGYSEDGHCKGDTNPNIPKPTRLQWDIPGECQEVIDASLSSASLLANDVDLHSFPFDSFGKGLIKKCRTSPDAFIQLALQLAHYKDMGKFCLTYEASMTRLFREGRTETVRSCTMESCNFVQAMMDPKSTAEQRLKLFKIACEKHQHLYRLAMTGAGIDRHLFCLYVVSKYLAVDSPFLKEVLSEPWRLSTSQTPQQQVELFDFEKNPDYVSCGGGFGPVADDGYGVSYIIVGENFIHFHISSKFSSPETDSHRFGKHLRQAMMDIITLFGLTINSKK

SMILES | solubility kinetic [1] [µg/mL] | Papp [2] [×10⁻⁶ cm/s] | IC50 [3] [nM] | IC50 [4] [nM] | logD [5] | IC50 [6] [nM] | IC50 [7] [nM] | IC50 [8] [nM]
COc1ccc(Cl)cc1S(=O)(=O)N1C[C@H](C)c2ccc(C(=O)Nc3ccc(C(=O)O)cc3)cc21 | 3 (≈ 5.99 µM) | 2.83 | 2130 | 698 | 3.01 | 1420 | 75.7 | 79.1
O=C(COc1ccccc1)N1CCCC[C@@H]1c1noc(-c2cnnc3ccccc23)n1 | 18 (≈ 43.3 µM) | 3.59 | 89900 | 18800 | 2.9 | > 100000 | 49.1 | 136
O=C(COc1ccccc1)N1CCCC[C@@H]1c1noc(-c2ccc(C(F)(F)F)nc2)n1 | 8 (≈ 18.5 µM) | 2.21 | 71000 | 6600 | 3.38 | > 100000 | 197 | 200
NC(=O)c1cccc(-c2noc([C@H]3CCCCN3C(=O)COc3ccccc3)n2)c1 | 42 (≈ 103 µM) | 2.55 | 45700 | 16700 | 2.57 | 72300 | 40.8 | 156
COc1ccc(Cl)cc1S(=O)(=O)N1CCSc2ccc(C(=O)Nc3ccc(CC(=O)O)cc3)cc21 | 232 (≈ 435 µM) | 5.1 | > 100000 | > 100000 | 0.61 | 792 | 120 | 155
O=C(c1nc([C@H]2CCCCN2C(=O)COc2ccccc2)no1)N1CCC(c2ccncc2)C1 (stereo partly specified) | 204 (≈ 442 µM) | 4.27 | 57300 | 19100 | 2.12 | > 100000 | 216 | 1670
COc1ccc(Cl)cc1CN1C(=O)CSc2ccc(C(=O)Nc3nc(CC(=O)O)cs3)cc21 | 31 (≈ 61.5 µM) | 1.53 | > 100000 | > 100000 | 0.72 | 1720 | 125 | 75.9
